From ChEMBL document CHEMBL6134843, “HDAC11 Inhibition as a Potential Therapeutic Strategy for AML: Target Identification, Lead Discovery, Antitumor Potency, and Mechanism Investigation” (J Med Chem, 2025)
Active and inactive are the calls of the source. No cut-off for these calls is given here.

Legend:
U-937 [1] = assay: Induction of ferroptosis in human U-937 cells assessed as increase in cellular ROS accumulation at 10 uM in presence of Zinc protoporphyrin by flow cytometry analysis; assay type: functional, cell-based
U-937 [2] = assay: Upregulation of p62 […] level in human U-937 cells at 2.5 to 10 uM incubated for 48 hrs by Western blot analysis; assay type: functional, cell-based; details: dose 2.5-10 µM
MLL-AF9 [3] = assay: Synergistic antitumor activity against mouse MLL-AF9 at 1 to 4 uM in presence of cytarabine by CCK-8 assay; assay type: functional, cell-based; details: dose 1-4 µM
[4] = system: Acute myeloid leukemic cell; assay: Induction of ferroptosis in human Acute myeloid leukemic cells assessed as upregulation of TF mRNA level by RT-qPCR analysis; assay type: functional, cell-based
[5] = Antitumor activity against mouse MLL-AF9 cells allografted in female C57BL/6 mouse model assessed as GFP positive leukemic cells in peripheral blood at 50 mg/kg, ip administered once daily for 32 days by FITC staining based analysis (reference value: 72.5 %); assay type: functional; details: time 32 day
OCI-AML2 [6] = assay: Induction of cell apoptosis in human OCI-AML2 cells incubated for 48 hrs by Annexin V/DAPI staining based flow cytometry analysis; assay type: functional; details: dose 2.5-10 µM
[7] = Antitumor activity against mouse MLL-AF9 cells allografted in female C57BL/6 mouse model assessed as GFP positive leukemic cells in peripheral blood at 50 mg/kg, ip administered once daily for 26 days in presence of cytarabine by FITC staining based analysis (reference value: 30.6 %); assay type: functional; details: time 26 day
[8] = system: Acute myeloid leukemic cell; assay: Induction of ferroptosis in human Acute myeloid leukemic cells assessed as upregulation of GPX4 mRNA level by RT-qPCR analysis; assay type: functional, cell-based
OCI-AML2 [9] = assay: Induction of cell cycle arrest in human OCI-AML2 cells assessed as accumulation of cells at G1 phase at 5 uM incubated for 48 hrs by EdU/DAPI staining based flow cytometry analysis; assay type: functional
U-937 [10] = assay: Effect on CDK6 gene expression in human U-937 cells at 10 uM incubated for 48 hrs by RT-qPCR; assay type: functional, cell-based
[11] = Toxicity in female C57BL/6 mouse model assessed as change in body weight at 50 mg/kg, ip administered once daily in presence of cytarabine; assay type: organism-based; details: in vivo
OCI-AML2 [12] = assay: Cytotoxicity against human OCI-AML2 cells assessed as cell growth inhibition at 5 uM incubated for 24 to 48 hrs by cell counting assay; assay type: functional, cell-based; details: time 24-48 hrs
[13] = Toxicity in female C57BL/6 mouse model assessed as change in body weight at 50 mg/kg, ip administered once daily; assay type: organism-based; details: in vivo
MOLM-13 = assay: Antiproliferative activity against human MOLM-13 cells assessed as cell growth inhibition incubated for 2 days by CCK-8 assay; details: MOLM-13, 48 h
U-937 [14] = assay: Effect on MYC gene expression in human U-937 cells at 10 uM incubated for 48 hrs by RT-qPCR; assay type: functional, cell-based
U-937 [15] = assay: Induction of cell cycle arrest in human U-937 cells assessed as accumulation of cells at G1 phase at 5 uM incubated for 48 hrs by EdU/DAPI staining based flow cytometry analysis; assay type: functional
U-937 [16] = assay: Effect on CCNB1 gene expression in human U-937 cells at 10 uM incubated for 48 hrs by RT-qPCR; assay type: functional, cell-based
[17] = Induction of cell apoptosis in human OCI-AML-3 cells at 5 uM incubated for 48 hrs by Annexin V/DAPI staining based flow cytometry analysis relative to control; assay type: functional
U-937 [18] = assay: Effect on MOAP1 gene expression in human U-937 cells at 10 uM incubated for 48 hrs by RT-qPCR; assay type: functional, cell-based
U-937 [19] = assay: Induction of ferroptosis in human U-937 cells assessed as increase in malondialdehyde level at 5 uM incubated for 48 hrs; assay type: functional, cell-based
[20] = system: Acute myeloid leukemic cell; assay: Induction of ferroptosis in human Acute myeloid leukemic cells assessed as upregulation of TFRC protein level at 2.5 to 10 uM by Western blot analysis; assay type: functional, cell-based; details: dose 2.5-10 µM
[21] = molecular target: Keap1/Nrf2 (Homo sapiens) (UniProt Q16236+Q14145); assay: Activation of Keap1-Nrf2 signaling pathway in human U-937 cells assessed as upregulation of HMOX1 at 5 uM in presence of K67 by Western blot analysis; assay type: cell-based
Sequence of Keap1/Nrf2 (Homo sapiens) (Q14145 whole entry, looked up): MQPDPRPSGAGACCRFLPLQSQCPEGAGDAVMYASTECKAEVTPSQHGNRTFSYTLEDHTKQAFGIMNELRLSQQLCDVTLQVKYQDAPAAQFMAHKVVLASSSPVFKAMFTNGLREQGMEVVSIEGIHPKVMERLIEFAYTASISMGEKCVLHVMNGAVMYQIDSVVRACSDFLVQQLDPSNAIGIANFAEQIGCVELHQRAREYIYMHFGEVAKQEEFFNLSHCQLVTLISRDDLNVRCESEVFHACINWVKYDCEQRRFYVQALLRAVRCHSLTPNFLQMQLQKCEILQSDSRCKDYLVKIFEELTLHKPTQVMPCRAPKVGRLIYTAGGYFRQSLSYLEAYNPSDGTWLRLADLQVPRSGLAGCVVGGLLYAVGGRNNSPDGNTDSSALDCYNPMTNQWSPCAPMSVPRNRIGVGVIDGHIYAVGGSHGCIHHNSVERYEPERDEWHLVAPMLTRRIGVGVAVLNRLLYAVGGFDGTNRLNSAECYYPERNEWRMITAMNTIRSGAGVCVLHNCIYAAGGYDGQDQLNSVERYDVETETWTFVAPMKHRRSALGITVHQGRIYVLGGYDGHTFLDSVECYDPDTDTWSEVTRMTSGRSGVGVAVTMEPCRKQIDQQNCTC
Sequence of Keap1/Nrf2 (Homo sapiens) (Q16236 whole entry, looked up): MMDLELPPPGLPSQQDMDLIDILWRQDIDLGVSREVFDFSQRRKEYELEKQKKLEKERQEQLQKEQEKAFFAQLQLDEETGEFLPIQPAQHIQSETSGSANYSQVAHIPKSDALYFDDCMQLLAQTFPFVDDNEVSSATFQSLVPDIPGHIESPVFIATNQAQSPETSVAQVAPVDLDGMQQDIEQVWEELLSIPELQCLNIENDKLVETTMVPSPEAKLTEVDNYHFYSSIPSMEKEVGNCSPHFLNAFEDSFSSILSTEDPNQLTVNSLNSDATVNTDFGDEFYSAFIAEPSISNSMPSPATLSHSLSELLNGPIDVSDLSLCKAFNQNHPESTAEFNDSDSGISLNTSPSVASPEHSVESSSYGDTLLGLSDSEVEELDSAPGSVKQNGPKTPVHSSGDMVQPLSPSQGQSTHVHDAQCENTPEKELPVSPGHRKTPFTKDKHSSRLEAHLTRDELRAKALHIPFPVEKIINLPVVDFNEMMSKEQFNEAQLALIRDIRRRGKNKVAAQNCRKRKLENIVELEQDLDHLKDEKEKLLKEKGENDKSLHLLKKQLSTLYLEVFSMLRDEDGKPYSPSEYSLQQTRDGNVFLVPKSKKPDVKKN

[22] = system: Acute myeloid leukemic cell; assay: Induction of ferroptosis in human Acute myeloid leukemic cells assessed as upregulation of TFRC mRNA level by RT-qPCR analysis; assay type: functional, cell-based
[23] = Toxicity in female C57BL/6 mouse model assessed as increase in survival rate at 50 mg/kg, ip administered once daily in presence of cytarabine by Kaplan Mayer survival analysis; assay type: organism-based; details: in vivo
[24] = system: Acute myeloid leukemic cell; assay: Induction of ferroptosis in human Acute myeloid leukemic cells assessed as upregulation of HMOX1 mRNA level by RT-qPCR analysis; assay type: functional, cell-based
[25] = Bioavailability in ICR(CD-1) mouse at 50 mg/kg, ip treated up to 24 hrs by LC-MS/MS analysis; assay type: ADME, organism-based; details: in vivo
[26] = MRT (0 to infinity) in ICR(CD-1) mouse at 50 mg/kg, ip treated up to 24 hrs by LC-MS/MS analysis; assay type: ADME, organism-based; details: in vivo
U-937 [27] = assay: Effect on CCND2 gene expression in human U-937 cells at 10 uM incubated for 48 hrs by RT-qPCR; assay type: functional, cell-based
U-937 [28] = assay: Induction of ferroptosis in human U-937 cells assessed as increase in lipid peroxidation at 10 uM in presence of Zinc protoporphyrin by flow cytometry analysis; assay type: functional, cell-based
[29] = Cmax in ICR(CD-1) mouse at 50 mg/kg, ip treated up to 24 hrs by LC-MS/MS analysis; assay type: ADME, organism-based; details: in vivo
U-937 [30] = assay: Cytotoxicity against human U-937 cells assessed as cell growth inhibition at 5 uM incubated for 24 to 48 hrs by cell counting assay; assay type: functional, cell-based; details: time 24-48 hrs
[31] = AUC (0 to infinity) in ICR(CD-1) mouse at 50 mg/kg, ip treated up to 24 hrs by LC-MS/MS analysis; assay type: ADME, organism-based; details: in vivo
[32] = Half life in ICR(CD-1) mouse at 50 mg/kg, ip treated up to 24 hrs by LC-MS/MS analysis; assay type: ADME, organism-based; details: in vivo
OCI-AML2 [33] = assay: Induction of ferroptosis in human OCI-AML2 cells assessed as increase in lipid peroxidation accumulation at 100 uM incubated for 48 hrs by C11-BODIPY 581/591 staining based flow cytometry analysis; assay type: functional, cell-based
U-937 [34] = assay: Induction of ferroptosis in human U-937 cells assessed as upregulation of HMOX1 level at 10 uM in presence of Zinc protoporphyrin by flow cytometry analysis; assay type: functional, cell-based
OCI-AML2 [35] = assay: Induction of ferroptosis in human OCI-AML2 cells assessed as increase in cellular ROS level incubated for 48 hrs by DCFH-DA staining based flow cytometry analysis; assay type: functional, cell-based; details: dose 2.5-10 µM
U-937 [36] = assay: Induction of ferroptosis in human U-937 cells assessed as increase in ferrous ion accumulation at 100 uM incubated for 48 hrs by RhoNox-1 staining based flow cytometry analysis; assay type: functional, cell-based
MLL-AF9 [37] = assay: Antitumor activity against mouse MLL-AF9 cells allografted in female C57BL/6 mouse model assessed as reduction in splenomegaly at 50 mg/kg, ip administered once daily for 23 days; assay type: functional, organism-based; details: time 23.0 day

O=C(NO)c1cccc2[nH]c(C#Cc3cccc(C(F)(F)F)c3)cc12
Activity (U-937 [1]): Active
Activity (U-937 [2]): Active
Activity (MLL-AF9 [3]): Active
Activity [4]: Active
Activity [5]: 17.2%
Activity (OCI-AML2 [6]): Dose-dependent-effect
Activity [7]: 1.74%
Activity [8]: Active
Activity (OCI-AML2 [9]): Dose-dependent-effect
Activity (U-937 [10]): Active
Activity [11]: Non-toxic
Activity (OCI-AML2 [12]): Active
Activity [13]: Non-toxic
IC50 (MOLM-13): ≤ 10 µM
Activity (U-937 [14]): Active
Activity (U-937 [15]): Dose-dependent-effect
Activity (U-937 [16]): Active
Activity [17]: ~20%
Activity (U-937 [18]): Active
Activity (U-937 [19]): Active
Activity [20]: Active
Activity [21]: inactive
Activity [22]: Active
Activity [23]: Non-toxic
Activity [24]: Active
bioavailability [25]: 32%
MRT inf [26]: 6.03 h
Activity (U-937 [27]): Active
Activity (U-937 [28]): Active
Cmax [29]: 2920 ng/mL
Activity (U-937 [30]): Active
AUC(0-inf) [31]: 2000 ng·h/mL
half-life [32]: 8.95 h
Activity (OCI-AML2 [33]): Active
Activity (U-937 [34]): Active; Partially Reversed Zinc Protoporphyrin Inhibition
Activity (OCI-AML2 [35]): Dose-dependent-effect
Activity (U-937 [36]): Active
Activity (MLL-AF9 [37]): Active
